In one data set the target is T1, cPLA2 (Homo sapiens, UniProt P47712).
T1 sequence (P47712 1-749): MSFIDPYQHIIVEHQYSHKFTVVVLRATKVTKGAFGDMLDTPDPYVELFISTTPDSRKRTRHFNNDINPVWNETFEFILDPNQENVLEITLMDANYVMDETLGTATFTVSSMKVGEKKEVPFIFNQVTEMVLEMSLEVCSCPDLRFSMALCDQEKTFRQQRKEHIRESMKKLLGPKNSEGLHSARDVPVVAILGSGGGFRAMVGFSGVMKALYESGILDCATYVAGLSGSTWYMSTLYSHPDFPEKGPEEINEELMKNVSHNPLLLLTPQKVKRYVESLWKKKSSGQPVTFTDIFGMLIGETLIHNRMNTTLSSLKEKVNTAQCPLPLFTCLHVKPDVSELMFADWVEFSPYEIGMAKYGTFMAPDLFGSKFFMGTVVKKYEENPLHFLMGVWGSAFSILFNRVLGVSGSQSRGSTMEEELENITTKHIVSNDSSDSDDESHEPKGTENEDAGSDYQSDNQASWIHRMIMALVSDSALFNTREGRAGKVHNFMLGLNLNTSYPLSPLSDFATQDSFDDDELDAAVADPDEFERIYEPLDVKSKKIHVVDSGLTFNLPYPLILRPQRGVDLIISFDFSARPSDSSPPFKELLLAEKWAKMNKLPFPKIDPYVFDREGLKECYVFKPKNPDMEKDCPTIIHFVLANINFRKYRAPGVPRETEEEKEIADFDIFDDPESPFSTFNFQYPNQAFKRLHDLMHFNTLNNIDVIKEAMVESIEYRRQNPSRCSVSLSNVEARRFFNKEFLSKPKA
The experiment in a line: Coumarine Assay (hydrolysis of 7-hydroxycoumarinyl 6-heptenoate by cPLA2, fluorometric). The class given is biochemical. The note with it: 60 μM 7-hydroxycoumarinyl 6-heptenoate substrate, 4 μg cPLA2, pH 7.5; excitation 360 nm, emission 460 nm; read-out: Coumarin IC50.

Experimental for cPLA2: Inhibitors were mixed with 200 μL assay buffer (80 mM Heped, pH 7.5, 1 mM EDTA) containing 60 μM 7-hydroxycoumarinyl 6-heptenoate. The reaction was initiated by adding 4 μg cPLA2 in 50 μL assay buffer. Hydrolysis of the 7-hydroxycounarimyl 6-heptenoate ester was monitored in a fluorometer by exciting at 360 nm and monitoring emission at 460 nm. Enzyme activity is proportional to the increase in emission at 460 nm per minute. In the presence of a cPLA2 inhibitor, the rate of increase is less.

By IC50 is commonly meant the midpoint of a concentration-inhibition curve. For the compound “4-[2-(1-benzhydryl-5-chloro-2-{2-[({2-[(3R,5S)-3,5-dimethylmorpholin4-yl]ethyl}sulfonyl)amino]ethyl}-1H-indol-3-yl)ethoxy]benzoic acid [Example 250]”, the IC50 on cPLA2 was 2100 nM.

For “4-{2-[1-benzhydryl-5-chloro-2-(2-{[(2,6-dimethylbenzyl)sulfonyl]amino}ethyl)-1H-indol-3-yl]ethoxy}benzoic acid [Example 279]”, the IC50 on cPLA2 came out at 160 nM.

Turning to `O=C(O)c1ccc(OCCc2c(CCNS(=O)(=O)c3cccc(F)c3)n(C(c3ccccc3)c3ccccc3)c3ccc(Cl)cc23)cc1` [Example 223], on cPLA2, the IC50 was found to be 600 nM.

Take `O=C(O)c1ccc(OCCc2c(CCNS(=O)(=O)c3c(F)cccc3F)n(C(c3ccccc3)c3ccccc3)c3ccc(Cl)cc23)cc1` [Example 225, 4-{2-[1-benzhydryl-5-chloro-2-(2-{[(2,6-fluorophenyl)sulfonyl]amino}ethyl)-1H-indol-3-yl]ethoxy}benzoic acid]: the IC50 at cPLA2 came out at 400 nM.

As to `O=C(O)c1cccc(OCCc2c(CCNS(=O)(=O)Cc3ccc(Cl)c(Cl)c3)n(C(c3ccccc3)c3ccccc3)c3ccc(Cl)cc23)c1` [Example 284, 3-(2-(1-benzhydryl-5-chloro-2-(2-((3,4-dichlorophenyl)methylsulfonamido)ethyl)-1H-indol-3-yl)ethoxy) benzoic acid], the IC50 at cPLA2 was 400 nM.

As a reminder, the melting point is the temperature of the solid-liquid transition. The compound `O=C(O)c1ccc(OCCc2c(CCNS(=O)(=O)Cc3ccc(Cl)c(Cl)c3)n(C(c3ccccc3)c3ccccc3)c3ccc(Cl)cc23)cc1F` [Example 296, 4-{2-[1-benzhydryl-5-chloro-2-(2-{[(3,4-dichlorobenzyl)sulfonyl]amino}ethyl)-1H-indol-3-yl]ethoxy}-2-fluorobenzoic acid] yielded a melting point of 117 to 119 °C.

Consider `O=C(O)c1ccc(OCCc2c(CCNS(=O)(=O)Cc3ccccc3Cl)n(C(c3ccccc3)c3ccccc3)c3ccc(Cl)cc23)cc1F` [Example 297, 4-{2-[1-benzhydryl-5-chloro-2-(2-{[(2-chlorobenzyl)sulfonyl]amino}ethyl)-1H-indol-3-yl]ethoxy}-2-fluorobenzoic acid], for which the melting point was in the range of 132 to 135 °C.

`CC(C)(Cc1ccc(S(=O)(=O)CCc2c(CCNS(=O)(=O)Cc3ccc(Cl)c(Cl)c3)n(C(c3ccccc3)c3ccccc3)c3ccc(Cl)cc23)cc1)C(=O)O` [Example 298, 3-[4-({2-[1-benzhydryl-5-chloro-2-(2-{[(3,4-dichlorobenzyl)sulfonyl]amino}ethyl)-1H-indol-3-yl]ethyl}sulfonyl)phenyl]-2,2-dimethylpropanoic acid] yielded a melting point of 207 to 208 °C.

The values are drawn from patent publication US7713964B2, “Methods for treating asthmatic conditions” (Wyeth LLC, priority 2001, dated 2010).
